PMC9413440, “An Iterative Approach Guides Discovery of the FabI Inhibitor Fabimycin, a Late-Stage Antibiotic Candidate with In Vivo Efficacy against Drug-Resistant Gram-Negative Infections” (ACS Central Science, 2022)
Values after ≈ are worked out from the molar mass of the structure shown.

What was measured:
A. baumannii FabI = A. baumannii FabI (Acinetobacter baumannii, UniProt D0CAD5); experiment: Differential scanning fluorimetry; format: binding; details: relative to the holoenzyme
Description: supplemented with 100 µg/mL ampicillin at 37°C until OD600 reached 0.6-0.7. The cells were induced with 1mM IPTG and incubated for 20 hours at 18°C and spun down at 8000 rpm for 15 minutes. Cell pellet was resuspended in the lysis buffer (50 mM Tris-HCl pH 8.0, 500 mM Na Cl, 20 mM imidazole, 10% glycerol, 0.5 mM TCEP, protease inhibitor and Lysonase) and passed through microfluidizer followed by centrifugation and filtration to remove cell debris. The clarified lysate was supplemented with 20 mM imidazole and passed over a HisTrap column (Cytiva) pre-equilibrated with the wash buffer (50 mM Tris-HCl pH 8.0, 500 mM NaCl, 20 mM imidazole, 10% glycerol, 0.5 mM TCEP). The column was washed with the wash buffer and eluted over a 20-500 mM imidazole gradient. […]
Recombinant E. coli and A. baummani FabI enzymes were used in a continuous NADH absorbance assay (20 µL in 384w format). […] After shaking for 5 seconds the reaction was monitored at NADH absorbance (340nm, 25°C) using a Molecular Devices SpectraMax M5 microplate reader. The linear portion of the progress curve was fit using plate-reader software. Percentage activity was calculated relative to DMSO only and no-substrate controls in each plate and the data were fit to Morrison’s quadratic using Graphpad Prism 9.3 to obtain apparent inhibition constant (Ki app) values. […]

[1] = test system: Bacteroides cellulosilyticus KLE 2342; experiment: MIC, commensal bacteria; format: cell-based; details: KLE2342
Description: (§1) II. Materials and Methods for Biological Experiments
(§2) S. aureus ATCC 29213 and E. coli MG1655 were obtained from the American Type Culture Collection (ATCC). E. coli BW25113 and E. coli JW5503 were obtained from the Keio Collection. AR-bank strains were obtained from the Centers for Disease Control and Prevention and FDA Antibiotic Resistance Isolate Bank.
(§3) Antimicrobial susceptibility tests
(§4) Susceptibility testing was performed in biological triplicate, unless noted otherwise, using the micro-dilution broth method as outlined by the Clinical and Laboratory Standards Institute. Bacteria were cultured with cation-adjusted Mueller Hinton broth (Sigma Aldrich, catalogue number: 90922). […]
(§5) NH3: m/z 391.2 → 171.0. Fabimycin: m/z 405.3 → 145.3. Power analysis was not used to determine the number of replicates. Error bars represent the standard error of the mean of three biological replicates. All compounds evaluated in biological assays were ≥95% pure.

[2] = test system: Bacteroides vulgatus KLE 2303; experiment: MIC, commensal bacteria; format: cell-based; details: Phocaeicola vulgatus, KLE2303
Description: as §1, §2, §3, §4, §5

[3] = test system: Bifidobacterium longum ATCC BAA999; experiment: MIC, commensal bacteria; format: cell-based; details: ATCCBAA999
Description: as §1, §2, §3, §4, §5

[4] = test system: Blautia producta ATCC 27340; experiment: MIC, commensal bacteria; format: cell-based; details: ATCC27340
Description: as §1, §2, §3, §4, §5

[5] = test system: Enterococcus faecalis KLE 2341; experiment: MIC, commensal bacteria; format: cell-based; details: KLE2341
Description: as §1, §2, §3, §4, §5

[6] = test system: Faecalibacterium prausnitzii ATCC 27768; experiment: MIC, commensal bacteria; format: cell-based; details: ATCC27768
Description: as §1, §2, §3, §4, §5

[7] = test system: Lactobacillus reuteri ATCC 23272; experiment: MIC, commensal bacteria; format: cell-based; details: Limosilactobacillus reuteri, ATCC23272
Description: as §1, §2, §3, §4, §5

[8] = test system: Streptococcus parasanguinis KLE 2375; experiment: MIC, commensal bacteria; format: cell-based; details: KLE2375
Description: as §1, §2, §3, §4, §5

E. coli MG1655 = experiment: Serial passaging; format: cell-based, Escherichia coli; details: E. coli MG1655, subinhibitory concentration, 21 days
Description: Serial passaging procedure was done as reported in literature.5 Briefly, E. coli MG1655 cells were grown in 0.6 mL of MH media containing fabimycin and ciprofloxacin (control) at different concentrations. Cells were added to the respective compounds at 0.25X, 0.5X, 1X, 2X, and 4X to start. At 22-24 hours the cultures were checked for growth. […]
compound at varying concentrations based off of the MIC. This serial passaging was repeated for 21 days. […]
All cells were cultured […]
at 37 °C under a 5% CO2 environment. Cell lines were authenticated by a commercial vendor and inspected visually in house. Cell lines were not tested for Mycoplasma contamination. The media was prepared by the University of Illinois School of Chemical Sciences Cell Media Facility.
H. sapiens HFF-1, A549, and HepG2 cells were seeded (3,000-6,000 cells/well) in a 96-well plate (Greiner Bio-One;

Sequence of A. baumannii FabI (D0CAD5 entry or part of it): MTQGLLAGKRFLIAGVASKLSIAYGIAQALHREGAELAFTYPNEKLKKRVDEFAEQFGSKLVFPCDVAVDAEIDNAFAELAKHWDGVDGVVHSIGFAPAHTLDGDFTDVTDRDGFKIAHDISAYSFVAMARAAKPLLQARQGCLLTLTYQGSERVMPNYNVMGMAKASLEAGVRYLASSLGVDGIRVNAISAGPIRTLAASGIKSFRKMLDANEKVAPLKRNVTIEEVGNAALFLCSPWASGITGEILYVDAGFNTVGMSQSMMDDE

Row | SMILES | ΔTm (A. baumannii FabI) [°C] | MIC [1] [µg/mL] | MIC [2] [µg/mL] | MIC [3] [µg/mL] | MIC [4] [µg/mL] | MIC [5] [µg/mL] | MIC [6] [µg/mL] | MIC [7] [µg/mL] | MIC [8] [µg/mL] | increase in the MIC after serial passaging (E. coli MG1655) [fold]
1 | Cc1c(CN(C)C(=O)/C=C/c2cnc3c(c2)CC[C@@H](N)C(=O)N3)oc2ccccc12 [(R)-7] | 18 ± 0.5 | – | – | – | – | – | – | – | – | –
2 | Cc1c(CN(C)C(=O)/C=C/c2cnc3c(c2)CC[C@H](N)C(=O)N3)oc2ccccc12 [fabimycin] | 24 ± 0.5 | > 128 | > 128 | > 128 | > 128 | > 128 | > 128 | 64 (≈ 158 µM) | 128 (≈ 316 µM) | 8
